According to US10800772B2 (Gilead Sciences, Inc., priority 2016, dated 2020):
Like-named read-outs stand apart in the source and are kept apart here.

Experiments:
Assay type in all cases: cell-based, HIV-1
[1] = tested on: HIV-IIIb IN T174I BT; test: Antiviral assay in MT4 cells, HIV-IIIb IN T174I BT virus (from viral breakthrough); conditions: Human immunodeficiency virus 1, IIIB, MT4, 120 h, read-out: T174I BT EC50, MT4 cells, HIV-IIIb IN T174I BT (viral breakthrough), 5 days, CellTiter-Glo
Procedure, shortened: (§1)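 Luminescence from CellTiter-Glo after a 5-day culture served as the measure of HIV-1 replication in MT4 cells. Cells were infected beforehand for 3 h with HIV-IIIb (0.004 m.o.i.) and exposed to ten 3-fold compound dilutions. EC50 corresponds to a 50% signal decrease.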

[2] = tested on: HIV-IIIb (wildtype); test: Antiviral assay in MT4 cells, HIV-IIIb wildtype; conditions: read-out: WT EC50
Procedure, shortened: as §1

[3] = tested on: HIV-IIIb IN T174I DE; test: Antiviral assay in MT4 cells, HIV-IIIb IN T174I DE virus (from dose escalation passaging); conditions: Human immunodeficiency virus 1, IIIB, MT4, 120 h, read-out: T174I DE EC50, MT4 cells, HIV-IIIb IN T174I DE (dose escalation), 5 days, CellTiter-Glo
Procedure, shortened: as §1

[4] = Human immunodeficiency virus 1, IIIB, MT4, 120 h

| SMILES | EC50 [1] [nM] | EC50 [2, 4] [nM] | EC50 [3] [nM] | EC50 ([2]; Human immunodeficiency virus 1, 120 h, MT4 cells, HIV-IIIb wildtype, 5 days, CellTiter-Glo) [nM] |
| --- | --- | --- | --- | --- |
| Cc1cc2nc(-c3ccc4c(n3)c(C3CCN(C5COC5)CC3)nn4C(F)F)sc2c(-c2ccc(Cl)cc2)c1[C@H](OC(C)(C)C)C(=O)O [Compound 194, (S)-2-(tert-butoxy)-2-(7-(4-chloro-phenyl)-2-(1-(difluoromethyl)-3-(1-(oxetan-3-yl)piperidin-4-yl)-1H-pyrazolo [4,3-b]pyridin-5-yl)-5-methylbenzo [d]thiazol-6-yl) acetic acid] | 126 | 4 | 300 | – |
| CC(=O)N1CC[C@H]1CN1CCC(c2nn(C)c3ccc(-c4nc5cc(C)c([C@H](OC(C)(C)C)C(=O)O)c(-c6ccc(Cl)cc6)c5s4)cc23)CC1 [Compound 151, (S)-2-(2-(3-(1-(((S)-1-acetyl-azetidin-2-yl)methyl)piperidin-4-yl)-1-methyl-1H-indazol-5-yl)-7-(4-chloro-phenyl)-5-methylbenzo[d]thiazol-6-yl)-2-(tert-butoxy) acetic acid] | 237 | 16 | 231 | – |
| Cc1cc2nc(-c3ccc4c(c3)c(C3CCN(C5CCC5)CC3)nn4C)sc2c(-c2ccc(Cl)cc2)c1[C@H](OC(C)(C)C)C(=O)O [Compound 129, (S)-2-(tert-butoxy)-2-(7-(4-chloro-phenyl)-2-(3-(1-cyclobutylpiperidin-4-yl)-1-methyl-1H-indazol-5-yl)-5-methylbenzo[d]thiazol-6-yl) acetic acid] | 509 | – | 696 | 5 |
| CC(=O)N1CC(N2CCC(c3nn(C)c4ccc(-c5nc6cc(C)c([C@H](OC(C)(C)C)C(=O)O)c(-c7ccc(Cl)cc7)c6s5)cc34)CC2)C1 [Compound 30, (S)-2-(2-(3-(1-(1-acetylazetidin-3-yl)piperidin-4-yl)-1-methyl-1H-indazol-5-yl)-7-(4-chlorophenyl)-5-methylbenzo[d]thiazol-6-yl)-2-(tert-butoxy)acetic acid] | 111 | 12 | 187 | – |
| CCN1CCN(c2nn(C)c3ccc(-c4nc5cc(C)c([C@H](OC(C)(C)C)C(=O)O)c(-c6ccc(Cl)cc6)c5s4)cc23)C1=O [Compound 82, (S)-2-(tert-butoxy)-2-(7-(4-chlorophenyl)-2-(3-(3-ethyl-2-oxoimidazolidin-1-yl)-1-methyl-1H-indazol-5-yl)-5-methylbenzo[d]thiazol-6-yl)acetic acid] | 3090 | 14 | 3870 | – |
| CN[C@@H]1CCN(c2nn(C)c3ccc(-c4nc5cc(C)c([C@H](OC(C)(C)C)C(=O)O)c(-c6ccc(Cl)cc6)c5s4)cc23)C1 [Compound 95, (S)-2-(tert-butoxy)-2-(7-(4-chlorophenyl)-5-methyl-2-(1-methyl-3-((R)-3-(methylamino)pyrrolidin-1-yl)-1H-indazol-5-yl)benzo[d]thiazol-6-yl)acetic acid] | 1750 | 41 | 11500 | – |
| COCC(C)N1CC(c2nn(C)c3ccc(-c4nc5cc(C)c([C@H](OC(C)(C)C)C(=O)O)c(-c6ccc(Cl)cc6)c5s4)cc23)C1 (stereo partly drawn) [Compound 124, (2S)-2-(tert-butoxy)-2-(7-(4-chlorophenyl)-2-(3-(1-(1-methoxypropan-2-yl)azetidin-3-yl)-1-methyl-1H-indazol-5-yl)-5-methylbenzo[d]thiazol-6-yl)acetic acid] | 1440 | 4 | 3440 | – |
| Cc1cc2nc(-c3ccc4c(c3)c(N3CCN([C@H]5C[C@@H](O)C5)CC3)nn4C)sc2c(-c2ccc(Cl)cc2)c1[C@H](OC(C)(C)C)C(=O)O [Compound 206, (S)-2-(tert-butoxy)-2-(7-(4-chloro-phenyl)-2-(3-(4-((1s,3s)-3-hydroxy-cyclobutyl)piperazin-1-yl)-1-methyl-1H-indazol-5-yl)-5-methylbenzo[d]thiazol-6-yl) acetic acid] | 340 | 21 | 539 | – |
